As usually defined, the IC50 is the concentration at which inhibition is half-maximal. Lower therefore signals greater potency in that assay.

The source of these data is ChEMBL document CHEMBL1134270, “Optimization of 4-phenylamino-3-quinolinecarbonitriles as potent inhibitors of Src kinase activity” (J Med Chem, 2001).

Data set [1] addresses Proto-oncogene tyrosine-protein kinase Src (Homo sapiens, UniProt P12931). Kind of data set: Inhibition against Src kinase.
The species entered for a further data set is Rattus norvegicus. Kind of data set: Ability to inhibit the proliferation of c-Src transformed rat fibroblasts growing in suspension. Format: functional.
Data set [2] in a line: plasma concentration of compound at four hour after the of intraperitoneal administration of 50 mg/kg. It is filed as ADME, organism-based. Further details: dose 50 mg/kg, route intraperitoneal. As to conditions: ip.
Data set [3] can be described thus: plasma concentration of compound at one hour after the of intraperitoneal administration of 50 mg/kg. It is filed as ADME, organism-based. Further details: dose 50 mg/kg, route intraperitoneal. Particulars: ip.
The nature of data set [4]: plasma concentration of compound at four hours after the of intraperitoneal administration of 50 mg/kg. Particulars: ip. Also noted: dose 50 mg/kg, route intraperitoneal. It is filed as ADME, organism-based.
Data set [5] has as its target Platelet-derived growth factor receptor (PDGFr) (Rattus norvegicus, UniProt P20786+Q05030). Put plainly: Inhibition of PDGF receptor transfected rat1A cell proliferation. It is filed as functional.
A further data set has as its system HT-29. Put plainly: Inhibition of HT-29 cell monolayer proliferation at 5 uM. It is filed as functional, cell-based. Particulars: Homo sapiens.

Proto-oncogene tyrosine-protein kinase Src, sequence (P12931 2-536 limits assumed): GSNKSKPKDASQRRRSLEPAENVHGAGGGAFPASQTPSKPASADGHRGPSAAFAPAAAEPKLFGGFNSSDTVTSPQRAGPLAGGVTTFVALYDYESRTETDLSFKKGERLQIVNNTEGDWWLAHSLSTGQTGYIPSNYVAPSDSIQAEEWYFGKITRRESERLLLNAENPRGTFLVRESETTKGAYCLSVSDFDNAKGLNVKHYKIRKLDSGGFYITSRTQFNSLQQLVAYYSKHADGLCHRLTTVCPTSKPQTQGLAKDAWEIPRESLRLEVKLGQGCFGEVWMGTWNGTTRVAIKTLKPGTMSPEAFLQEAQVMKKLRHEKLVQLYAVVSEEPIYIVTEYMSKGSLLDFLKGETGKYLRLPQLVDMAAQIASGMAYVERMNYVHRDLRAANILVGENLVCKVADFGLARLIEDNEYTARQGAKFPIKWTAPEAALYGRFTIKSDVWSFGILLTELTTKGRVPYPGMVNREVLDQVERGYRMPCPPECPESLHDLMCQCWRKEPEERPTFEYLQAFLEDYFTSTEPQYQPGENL

The compound `COc1cc(Nc2c(C#N)cnc3cc(OC)c(OC)cc23)c(Cl)cc1Cl` had an IC50 in data set [1] of 4.3 nM. In turn, `COc1cc(Nc2c(C#N)cnc3cc(OC)c(OC)cc23)c(C)cc1Cl` came in with an IC50 in data set [1] of 4 nM. For the compound `COc1cc(Nc2c(C#N)cnc3cc(OCCCN4CCNCC4)c(OC)cc23)c(Cl)cc1Cl`, the figures for the 50% inhibitory concentration (IC50) (in data set [1]; in the data set filed under Rattus norvegicus) were 1.1 nM and 1700 nM, respectively. For `COc1cc(Nc2c(C#N)cnc3cc(OC)c(OCCCN4CCOCC4)cc23)c(Cl)cc1Cl`, the IC50 in data set [1] was found to be 28 nM; in the data set filed under Rattus norvegicus it was 1200 nM.

Consider `COc1cc(Nc2c(C#N)cnc3cc(OCCCN4CCCN(C)CC4)c(OC)cc23)c(Cl)cc1Cl`, for which the results for the IC50 (in data set [1]; in the data set listed under Rattus norvegicus) were 1.4 nM and 350 nM, respectively. In data set [1], `COc1ccc(Cl)c(Nc2c(C#N)cnc3cc(OC)c(OC)cc23)c1` showed an IC50 of 10 nM.

`COc1cc(Nc2c(C#N)cnc3cc(OCCCCN4CCOCC4)c(OC)cc23)c(Cl)cc1Cl`: the IC50 is 1.3 nM in data set [1] and 330 nM in the data set filed under Rattus norvegicus. `COc1cc(Nc2ccnc3cc(OC)c(OC)cc23)c(Cl)cc1Cl`: in data set [1], the IC50 was determined as 81 nM.

As for `COc1cc(Nc2c(C#N)cnc3cc(OCCCN4CCOCC4)c(OC)cc23)c(Br)cc1Cl`, the IC50 in data set [1] turned out to be 0.95 nM; in the data set listed under Rattus norvegicus, 71 nM. `COc1ccc(Cl)c(Nc2c(C#N)cnc3cc(OCCCN4CCOCC4)c(OC)cc23)c1`: the IC50 is 1.6 nM in data set [1] and 150 nM in the data set listed under Rattus norvegicus. For the compound `COc1cc(Nc2c(C#N)cnc3cc(OC)c(OC)cc23)c(Cl)cc1C`, the IC50 in data set [1] was 2.9 nM. On the same count and under the same terms, the result for `CCCOc1cc(Nc2c(C#N)cnc3cc(OC)c(OC)cc23)c(Cl)cc1Cl` reads over 5000 nM; that for `COc1cc(Nc2ncnc3cc(OC)c(OC)cc23)c(Cl)cc1Cl`, 390 nM. `CCCN1CCN(CCCOc2cc3ncc(C#N)c(Nc4cc(OC)c(Cl)cc4Cl)c3cc2OC)CC1` registered an IC50 in the data set listed under Rattus norvegicus of 160 nM. With `COc1cc(Nc2c(C#N)cnc3cc(OCCCN4CCOCC4)c(OC)cc23)c(Cl)cc1C`, the IC50 in data set [1] was 1.1 nM; in the data set filed under Rattus norvegicus, 100 nM. Compound `COc1cc(Nc2c(C#N)cnc3cc(OC)c(OC)cc23)c(C)cc1C` came in with a half-maximal inhibitory concentration (IC50) in data set [1] of 4.6 nM. Consider `COc1cc(Nc2c(C#N)cnc3cc(OC)c(OC)cc23)ccc1Cl`, for which the IC50 in data set [1] turned out to be 120 nM. With `COc1cc(Nc2c(C#N)cnc3cc(OCCCn4nccn4)c(OC)cc23)c(Cl)cc1Cl`, the IC50 in data set [1] was 9.3 nM; in the data set filed under Rattus norvegicus, 1900 nM.

In the case of `COc1cc(Nc2c(C#N)cnc3cc(OCCCN(C)CCN(C)C)c(OC)cc23)c(Cl)cc1Cl`, the IC50 in data set [1] stood at 2.3 nM; in the data set filed under Rattus norvegicus it was 650 nM. As to `COc1cc(Nc2c(C#N)cnc3cc(OCCCn4ccnn4)c(OC)cc23)c(Cl)cc1Cl`, the concentration at 4 h in data set [2] was determined as 300 ng/mL. Moreover, the 50% inhibitory concentration (IC50) in data set [1] was found to be 1.9 nM; in the data set listed under Rattus norvegicus, 920 nM. This compound yielded a concentration at 1 h in data set [3] of 1300 ng/mL.

For `COc1cc(Nc2c(C#N)cnc3cc(OCCCCCN4CCOCC4)c(OC)cc23)c(Cl)cc1Cl`, the IC50 in data set [1] was determined as 2.5 nM; in the data set listed under Rattus norvegicus, 320 nM. As to `CCN1CCN(CCCOc2cc3ncc(C#N)c(Nc4cc(OC)c(Cl)cc4Cl)c3cc2OC)CC1`, the IC50 in the data set listed under Rattus norvegicus was found to be 130 nM. For `COc1cc(Nc2c(C#N)cnc3cc(OCCCN4CCOCC4)c(OC)cc23)c(C)cc1C`, the IC50 in data set [1] worked out at 1.7 nM; in the data set filed under Rattus norvegicus it was 160 nM. In data set [4], `COc1cc(Nc2c(C#N)cnc3cc(OCCCN4CCOCC4)c(OC)cc23)c(Cl)cc1Cl` registered a concentration at 4 h of 100 ng/mL. The IC50 in data set [1] amounted to 0.8 nM; in the data set listed under Rattus norvegicus, 140 nM. Also, the concentration at 1 h in data set [3] came out at 100 ng/mL. In data set [1], `COc1cc(Nc2c(C#N)cnc3cc(OC)c(OC)cc23)c(F)cc1Cl` displayed an IC50 of 66 nM. Take `COc1cc(Nc2c(C#N)cnc3cc(OCCCN4CCCCC4)c(OC)cc23)c(Cl)cc1Cl`: the IC50 came to 1.2 nM in data set [1] and 150 nM in the data set listed under Rattus norvegicus.

As for `COc1cc(Nc2c(C#N)cnc3cc(OCCCN4CCN(CCO)CC4)c(OC)cc23)c(Cl)cc1Cl`, the half-inhibitory concentration (IC50) in data set [1] was 0.76 nM; in the data set filed under Rattus norvegicus it was 610 nM. As to `CCOc1cc(Nc2c(C#N)cnc3cc(OC)c(OC)cc23)c(Cl)cc1C`, the IC50 in data set [1] is over 5000 nM.

In the case of `COc1cc2ncc(C#N)c(Nc3cc(O)c(Cl)cc3Cl)c2cc1OC`, the IC50 in data set [1] came out at 190 nM. In data set [1], `COc1cc(Nc2c(C#N)cnc3cc(OC)c(OC)cc23)c(Br)cc1Cl` showed an IC50 of 3 nM. On to `COc1cc(Nc2c(C#N)cnc3cc(OCCN4CCOCC4)c(OC)cc23)c(Cl)cc1Cl`, for which the IC50 in data set [1] stood at 2.3 nM; in the data set listed under Rattus norvegicus it was 190 nM. In data set [1], `CCOc1cc(Nc2c(C#N)cnc3cc(OC)c(OC)cc23)c(Cl)cc1Cl` yielded an IC50 of 1200 nM.

Turning to `COc1cc(Nc2c(C#N)cnc3cc(OCCCNCCN4CCOCC4)c(OC)cc23)c(Cl)cc1Cl`, the IC50 in data set [1] amounted to 3 nM; in the data set filed under Rattus norvegicus, 1200 nM. `COc1cc(Nc2c(C#N)cnc3cc(OCCCN4CC(C)N(C)C(C)C4)c(OC)cc23)c(Cl)cc1Cl` (stereo not drawn): the IC50 in data set [1] was 1.4 nM; in the data set filed under Rattus norvegicus it was 220 nM. As for `COc1cc(Nc2c(C#N)cnc3cc(OCCCn4ccnc4)c(OC)cc23)c(Cl)cc1Cl`, the IC50 in data set [1] stood at 2.1 nM; in the data set filed under Rattus norvegicus, 1400 nM. As to `COc1cc(Nc2c(C#N)cnc3cc(OCCCN4CCOCC4)c(OC)cc23)c(C)cc1Cl`, the results for the IC50 (in data set [1]; in the data set listed under Rattus norvegicus) were 1.2 nM and 150 nM, respectively. Take `COc1cc(Nc2c(C#N)cnc3cc(OCCCN4CCC(O)CC4)c(OC)cc23)c(Cl)cc1Cl`: the IC50 in data set [1] turned out to be 0.64 nM; in the data set listed under Rattus norvegicus it was 840 nM. For the compound `COc1cc2c(Nc3ccc(Cl)cc3Cl)c(C#N)cnc2cc1OCCCN1CCOCC1`, in the data set listed under Rattus norvegicus, half-maximal inhibition (IC50) was put at 940 nM. Regarding `COc1cc(Nc2c(C#N)cnc3cc(OCCCN4CCN(C)CC4)c(OC)cc23)c(Cl)cc1Cl` [BOSUTINIB], the IC50 in data set [5] came to 4000 nM; with HT-29 it was 5000 nM; in the data set filed under Rattus norvegicus, 100 nM. The same compound displayed a concentration at 4 h in data set [2] of 900 ng/mL. Further, in data set [3], the concentration at 1 h came to 3000 ng/mL.
